The source of these data is US7576094B2, “Spiro derivatives as lipoxygenase inhibitors” (Eli Lilly and Company, priority 2004, dated 2009).

Assay [1] has as its system release of the leukotriene LTB4 from a neutrophil cell line (MPRO cell line). In words: LTB4-Cell Assay. It is filed as cell-based. The settings on record: Mus musculus, 1 h, read-out: inhibition of LTB4 with an EC50. The source says:
• This procedure was used for measuring the release of the leukotriene LTB4 from a neutrophil cell line using a competitive ELISA technique. Materials and Equipments Materials for Cell Preparation and Experiment • MPRO cell line (ATCC, Catalog # CRL-11422) • Calcium ionophore (A23187) (Sigma, Catalog # C7522) • Nordihydroguaiaretic acid (NDGA) (BioMol ,Catalog # EI101-0001) • Retinoic Acid (all-trans) (ATRA) (Sigma, Catalog # 95152) • Sterile, tissue-culture treated 96-well plates (Corning, Catalog # 3614) Materials for LTB4 ELISA • Precoated (Mouse Anti-Rabbit IgG) EIA 96 Well Strip Plates (Cayman, Catalog # 400004) • Leukotriene B4 AChE Tracer (Cayman Catalog # 420110) • Leukotriene B4 EIA Antiserum (Cayman Catalog # 420112) • Ellman's Reagent (Cayman Catalog # 400050) • EIA Buffer Concentrate (10×) (Cayman Catalog # 400060) • Wash Buffer Concentrate (400×) (Cayman Catalog # 400062) • Plastic plate covers (Cayman Catalog # 400012) Procedure
A mouse promyelocytic cell line (MPRO) was used in this assay. These cells are committed immature neutrophils that can be differentiated into mature neutrophils by treatment with 10 μM all-trans retinoic acid for 72 hours.
Following 72 hours of differentiation, cells were stimulated with 1 μM of a calcium ionophore (A23187) in the presence or absence of test compound or vehicle for 1 hour at 37° C. After this time, supernatant was removed from the cells and the LTB4 levels were determined following manufacturer's instructions, using a Leukotriene B4 EIA kit from Cayman (Cat # 5201 11). The negative controls were media samples from differentiated but un-stimulated cells. The compounds were screened at 5 concentrations in quadruplicate starting at 10 μM.

For assay [2], the target named is T1, human recombinant 5-Lipoxygenase (Homo sapiens, UniProt P09917).
T1 sequence (P09917 1-674): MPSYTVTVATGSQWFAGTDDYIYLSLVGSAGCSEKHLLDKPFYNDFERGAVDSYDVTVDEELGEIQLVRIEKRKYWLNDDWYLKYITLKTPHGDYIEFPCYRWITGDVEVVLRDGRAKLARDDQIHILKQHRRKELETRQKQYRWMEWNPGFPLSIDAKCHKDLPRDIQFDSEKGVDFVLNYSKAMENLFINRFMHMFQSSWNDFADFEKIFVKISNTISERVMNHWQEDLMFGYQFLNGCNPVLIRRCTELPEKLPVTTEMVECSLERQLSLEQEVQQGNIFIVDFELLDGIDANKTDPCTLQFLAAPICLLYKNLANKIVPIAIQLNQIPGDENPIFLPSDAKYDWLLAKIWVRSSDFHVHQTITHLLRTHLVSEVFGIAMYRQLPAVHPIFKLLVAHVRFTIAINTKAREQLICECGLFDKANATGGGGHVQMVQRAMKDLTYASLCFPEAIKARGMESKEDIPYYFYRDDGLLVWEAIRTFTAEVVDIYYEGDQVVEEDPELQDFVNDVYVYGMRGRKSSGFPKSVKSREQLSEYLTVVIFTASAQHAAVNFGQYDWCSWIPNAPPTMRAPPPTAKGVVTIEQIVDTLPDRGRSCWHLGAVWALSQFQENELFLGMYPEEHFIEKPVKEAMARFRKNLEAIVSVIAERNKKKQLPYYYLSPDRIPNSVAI
In words: 5-Lipoxygenase Enzyme Assay. To be noted: 70 μM arachidonic acid, 10 minute incubation at room temperature, FOX reagent, absorbance at 620 nm; read-out: inhibition of 5-Lipoxygenase with an IC50. The class given is biochemical. An excerpt:
This procedure was used for measuring the enzymatic activity of human recombinant 5-Lipoxygenase using a colorimetric method based on the ferric oxidation of xylenol orange.
• 96 well flat bottom microfilter plates (VWR, Catalog # 62402-933 9295) • Lipoxygenase screening assay buffer (Cayman, Catalog # 760710) • Human recombinant 5-Lipoxygenase (Cayman, Catalog # 60402) • Arachidonic Acid (Sigma, Catalog # A3555) • Xylenol orange tetra sodium salt (Aldrich, Catalog # 227854) • Iron (II) sulfate heptahydrate (Sigma, Catalog # F7002) • Sulfuric acid (95-98%) [18 M] • Methanol Procedure
Human recombinant 5-Lipoxygenase (Cayman Cat # 60402) was used in this assay. The test compound and/or vehicle was added to 0.5 μL 5-Lipoxygenase in 50 mM Tris-HCl buffer, pH 7.4. The reaction was initiated by addition of 70 μM arachidonic acid in Tris-HCl buffer, pH 7.4, and terminated after a 10 minute incubation at room temperature by addition of FOX reagent (25 mM sulfuric acid, 100 μM xylenol orange, 100 μM iron (II) sulfate, methanol:water 9:1). The yellow color of acidified xylenol orange was converted to a blue color by the lipid hydroperoxide-mediated oxidation of Fe^2+ ions and the interaction of the resulting Fe^3+ ions with the dye. The complex was allowed to form during a 1 hour incubation at room temperature with shaking. Absorbance of the Fe^3+ complex was then measured at […] using a spectrophotometer.
Negative controls contained enzyme during the incubation step but substrate was not added until after the FOX reagent. Compounds were screened at 5 concentrations in triplicate starting at 10 μM

For assay [3], the system named is LTB4 production in human whole blood. In words: Inhibition of LTB4 Production in Blood. It is filed as cell-based. The settings on record: 1 h, 20 μM A23187, 60 minutes at 37° C., LTB4 in plasma by ELISA, read-out: protection against LTB4 at an EC50. As to the method:
• Human whole blood (Na citrate) (Stanford Blood Center) • A23187, (Sigma, Cat# C-7522) • Leukotriene B4 EIA reagents (Cayman Chemical, Cat # 520111) • BWA4C (Sigma, Cat # B7559) Procedure Preparation of A23187:
A23187 was prepared as a 10 mM stock solution in DMSO (aliquots can be stored at −20° C.). On the day of the assay the stock solution was diluted as follows: 70 μL 10 mM stock added to 1.6 mL plasma to give a working concentration of 0.42 mM.
From a 30 mM stock solution in DMSO, test articles were diluted to a working concentration of 600 μM in PBS (i.e. 10 μL stock solution+490 μL PBS). This is the highest concentration (gives a final testing concentration of 30 μM). From this 600 μM solution test articles were serially diluted 1:3 in PBS to give a dose-response curve. 10 μL of each concentration of test article was then added to 4 wells of a 96-well plate (i.e. testing in quadruplicate). A positive control compound, BWA4C was used in every assay.
Human whole blood was added to the plates containing compounds (190 μL per well) and mixed well. The blood was incubated with compound at 37° C. for 15 minutes. Following this incubation, 10 μL of 0.42 mM A23187 was added to each well except the negative control wells to give a final calcium ionophore concentration of 20 μM. The plates were then incubated at 37° C. for 60 minutes. After the incubation period, plates were centrifuged for 15 min at 2000 g at 4° C. in sealed microplate buckets. Plasma was then removed for quantitation of LTB4 levels by ELISA.
LTB4 levels in the plasma were determined using a commercially available ELISA kit from Cayman Chemicals. The ELISA was run according to the manufacturer's instructions. The LTB4 levels in the vehicle control sample were then compared to those in which the test article had been added. From this a percent inhibition of LTB4 production by each concentration of test article was calculated and the IC50 was determined.
In general terms: An ELISA detects its analyte on a solid surface through an enzyme-linked reagent.

Take `Cc1c(OC(=O)CN(C)C)cc2c(c1C)OC1(CCC1)CC2` [7,8-dimethyl-3,4-dihydrospiro[chromene-2,1′-cyclobutan]-6-yl (dimethylamino)acetate]: in assay [1], the EC50 (in general, the midpoint of the concentration-response curve) was less than 5 µM. As for `CCCCCCNC1c2c(C)c(O)c(C)c(C)c2OCC12CCC2` (centres unmarked) [4-(hexylamino)-5,7,8-trimethylspiro[chroman-3,1′-cyclobutan]-6-ol], the 50% inhibitory concentration (IC50) – broadly, the concentration that inhibits the measured activity by half – in assay [2] was less than 300 nM. Besides, the 50% effective concentration (EC50) in assay [1] is less than 5 µM. Regarding `C=Cc1c(C)c(O)c(C)c2c1OC1(CCC1)CC2` [5,7-dimethyl-8-vinyl-3,4-dihydrospiro[chromene-2,1′-cyclobutan]-6-ol], the half-maximal inhibitory concentration (IC50) in assay [2] was less than 300 nM. The 50% effective concentration (EC50) in assay [1] was less than 5 µM. For `Cc1c(C)c2c(c(C)c1O)C(=O)CC1(CCC1)S2` [6′-hydroxy-5′,7′,8′-trimethylspiro[cyclobutane-1,2′-thiochromen]-4′(3′H)-one] the same measures were less than 300 nM and less than 5 µM.

Consider `COC(=O)C1CC(c2c(C)c(O)c(C)c3c2OC2(CCC2)CC3)=NO1` (centres unmarked) [methyl 3-(6-hydroxy-5,7-dimethyl-3,4-dihydrospiro[chromene-2,1′-cyclobutan]-8-yl)-4,5-dihydroisoxazole-5-carboxylate], for which the half-inhibitory concentration (IC50) in assay [2] was less than 300 nM. Further, in assay [1], the EC50 was less than 5 µM.

Take `CCONC1CC2(CCC2)Oc2cc(C)c(O)c(C)c21` (centres unmarked) [4-(ethoxyamino)-5,7-dimethyl-3,4-dihydrospiro[chromene-2,1′-cyclobutan]-6-ol]: the concentration for half-maximal inhibition (IC50) in assay [2] is less than 300 nM. Besides, in assay [1], the EC50 is less than 5 µM. On to `Cc1c(C)c2c(c(C)c1OCc1ccc3ccccc3n1)CCC1(CCC1)O2` [2-{[(5,7,8-trimethyl-3,4-dihydrospiro[chromene-2,1′-cyclobutan]-6-yl)oxy]methyl}quinoline], for which the concentration giving a half-maximal response (EC50) in assay [1] was less than 5 µM. On to `CON(C)C1CC2(CCC2)Oc2c(C)c(C)c(O)c(C)c21` (centres unmarked) [4-[methoxy(methyl)amino]-5,7,8-trimethyl-3,4-dihydrospiro[chromene-2,1′-cyclobutan]-6-ol], for which the EC50 in assay [1] was less than 5 µM. For `Cc1c(O)c(C(C)(C)C)cc2c1C(O)CC1(CCC1)O2` (centres unmarked) [7-tert-butyl-5-methylspiro[chroman-2,1′-cyclobutane]-4,6-diol], the EC50 in assay [1] is less than 5 µM. For `CCc1c(O)c(C)c(C)c2c1/C(=N/OC)CC1(CCC1)O2` [5-ethyl-6-hydroxy-7,8-dimethylspiro[chromene-2,1′-cyclobutan]-4(3H)-one O-methyloxime], in assay [2], the IC50 was less than 300 nM. Moreover, in assay [1], the EC50 is less than 5 µM. The corresponding values for `Cc1cc2c(c(C)c1O)C(NS(=O)(=O)c1ccccc1)CC1(CCC1)O2` (centres unmarked) [N-(6-hydroxy-5,7-dimethyl-3,4-dihydrospiro[chromene-2,1′-cyclobutan]-4-yl)benzenesulfonamide] are less than 300 nM and less than 5 µM. The corresponding values for `CCO/N=C1\CC2(CCC2)Oc2cc(CC)c(O)c(CC)c21` [5,7-diethyl-6-hydroxyspiro[chromene-2,1′-cyclobutan]-4(3H)-one O-ethyloxime] are less than 300 nM and less than 5 µM.

Regarding `Cc1cc(O)c(Cl)c2c1OC1(CCC1)CC2` [5-chloro-8-methyl-3,4-dihydrospiro[chromene-2,1′-cyclobutan]-6-ol], the EC50 in assay [1] was less than 5 µM.

Consider `Cc1c2c(c(C)c(Cl)c1OC(=O)CN(C)C)OC1(CCC1)CC2` [7-chloro-5,8-dimethyl-3,4-dihydrospiro[chromene-2,1′-cyclobutan]-6-yl (dimethylamino)acetate], for which the IC50 in assay [2] was less than 300 nM. In assay [1], the EC50 was less than 5 µM.

For the compound `CONCC1=Cc2c(cc(C)c(OC(=O)C(C)(C)C)c2C)OC12CCC2` [3-[(methoxyamino)methyl]-5,7-dimethylspiro[chromene-2,1′-cyclobutan]-6-yl pivalate], the EC50 in assay [1] was less than 5 µM. On the same count and under the same terms, with `Cc1c(C)c2c(c(C)c1O)C(O)CC1(CCC1)O2` (centres unmarked) [5,7,8-trimethyl-3,4-dihydrospiro[chromene-2,1′-cyclobutane]-4,6-diol] the figure was less than 5 µM; with `Cc1cc(O)c(C(C)C)c2c1OC1(CCC1)CC2` [5-isopropyl-8-methyl-3,4-dihydrospiro[chromene-2,1′-cyclobutan]-6-ol], less than 5 µM. For the compound `Cc1c(C)c2c(c(C)c1O)C(C#N)=CC1(CCC1)O2` [6-hydroxy-5,7,8-trimethylspiro[chromene-2,1′-cyclobutane]-4-carbonitrile], the EC50 in assay [1] was less than 5 µM. As to `Cc1c(O)cc2c(c1C)N(CCCN1C(=O)c3ccccc3C1=O)CC1(CC1)C2` [2-(3-(6′-hydroxy-7′,8′-dimethyl-2′,4′-dihydro-1′H-spiro[cyclopropane-1,3′-quinoline]-1′-yl)propyl)isoindoline-1,3-dione], the concentration giving a half-maximal response (EC50) in assay [1] is less than 5 µM. Consider `Cc1ccc(S(=O)(=O)NCCCN2CC3(CCC3)Cc3cc(O)c(C)c(C)c32)cc1` [N-(3-(6′-hydroxy-7′,8′-dimethyl-2′,4′-dihydro-1′H-spiro[cyclobutane-1,3′-quinoline]-1′-yl)propyl)-4-methylbenzenesulfonamide], for which the EC50 in assay [3] is less than 10 µM. In addition, in assay [2], the 50% inhibitory concentration (IC50) was less than 300 nM. For `CCc1c(O)c(CC)c2c(c1CO)OC1(CCC1)CC2` [(Z)-5,7-diethyl-8-(hydroxymethyl)-3,4-dihydrospiro[chromene-2,1′-cyclobutan]-6-ol] the same measures were less than 10 µM and less than 300 nM.
